Assays:
[1] = target: EGFR (d746-750 (d19)/T790M) (Homo sapiens (Human), UniProt P00533, DEL746-750/T790M); test: Inhibitory activity for EGFR (d746-750 (d19)/T790M) kinase; format: biochemical; details: ATP 5 μM
Summary of the method: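 Recombinant EGFR d746-750/T790M (0.003 ng/μL final) preincubated 30 min with compound (10 to 0.0024 nM, 4-fold steps), then 5 μM ATP and 0.1 μM ULight-poly GT added for 2 h at room temperature. EDTA stop, Eu-anti-phosphotyrosine TR-FRET read (665 nm); IC50 by four-parameter fit.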

[2] = target: EGFR (d746-750/T790M/C797S) (Homo sapiens (Human), UniProt P00533, C797S/DEL746-750/T790M); test: Inhibitory activity for EGFR (d746-750/T790M/C797S) kinase; format: biochemical; details: ATP 5 μM; read-out: EGFR(d19/T790M/C797S) (IC50)
EGFR (d746-750/T790M/C797S), sequence (P00533 other isoform, or with tags, fused parts or gaps T790M/C797S/del 1-694/del 746-750 limits assumed): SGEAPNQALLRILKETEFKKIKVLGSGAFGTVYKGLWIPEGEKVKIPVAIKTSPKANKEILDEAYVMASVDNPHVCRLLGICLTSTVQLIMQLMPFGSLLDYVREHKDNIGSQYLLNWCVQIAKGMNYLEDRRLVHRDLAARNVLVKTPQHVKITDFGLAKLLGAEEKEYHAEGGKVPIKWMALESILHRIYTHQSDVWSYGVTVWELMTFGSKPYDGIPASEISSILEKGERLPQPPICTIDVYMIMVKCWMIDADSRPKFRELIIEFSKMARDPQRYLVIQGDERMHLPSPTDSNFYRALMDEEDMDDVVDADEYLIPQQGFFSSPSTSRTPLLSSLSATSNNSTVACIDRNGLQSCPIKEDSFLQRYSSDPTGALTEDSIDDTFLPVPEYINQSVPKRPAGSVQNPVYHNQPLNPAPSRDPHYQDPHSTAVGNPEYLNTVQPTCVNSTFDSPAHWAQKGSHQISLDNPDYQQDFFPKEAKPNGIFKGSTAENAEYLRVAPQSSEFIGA
Summary of the method: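 EGFR d746-750/T790M/C797S (0.03 ng/μL final) preincubated 30 min with compound (10 nM–0.0024 nM, 4-fold, 7 points). Reaction with 5 μM ATP and 0.1 μM ULight-poly GT, 2 h at room temperature; EDTA stop, Eu-anti-phosphotyrosine TR-FRET read at 665 nm, IC50 by four-parameter fit.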

[3] = tested on: BAF3-EGFR (L858R/T790M/C797S) cells; test: Inhibition of proliferation of BAF3-EGFR (L858R/T790M/C797S) cells, CCK-8; format: cell-based; details: Ba/F3 EGFR, 72 h, read-out: BAF3(EGFR T790M L858R C797S) cell inhibitory activity IC50
Summary of the method: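 BaF3 EGFR L858R/T790M/C797S cells seeded at 1.5×10^5 cells/mL in RPMI + 10% FBS, 37 °C, compound added after overnight, duplicates. Viability by CCK-8; % inhibition vs untreated and blank, IC50 by four-parameter fit.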

[4] = tested on: BAF3-EGFR (del19/T790M/C797S) cells; test: Inhibition of proliferation of BAF3-EGFR (Del19/T790M/C797S) cells, CCK-8; format: cell-based; details: Ba/F3 EGFR-Del19/T790M/C797S, 72 h, read-out: BAF3(EGFR T790M Del19 C797S) cell inhibitory activity IC50
Protocol: A flask of BAF3-EGFR (del19/T790M/C797S) cells in the logarithmic growth phase and good conditions was taken, and the cells were collected and added to a centrifuge tube. 20 μL of cells were taken and counted, and the required number of cells (mL) was pipetted and centrifuged at 1200 rpm for 3 min. The supernatant was discarded, and an appropriate amount of plating medium (RPMI medium+10% FBS) was added to adjust the cell density to 1.0×10^5 cells/mL. The cells were seeded on a 96-well plate at 100 μL/well using a multi-channel pipette and cultured in a cell incubator at 37° C., 5% CO2 with saturated humidity. After overnight incubation, compounds were loaded using a nanoliter pipettor, 2 duplicate wells were set for each concentration, and cells without compound added were used as negative controls.
(§1) Inhibition rate (%)=(mean value of negative control group-mean value of experimental group)/(mean value of negative control group−mean value of blank group)×100%.
(§2) A dose-response curve was fitted by four-parameter analysis, with the logarithm of compound concentration serving as abscissa and inhibition rate serving as ordinate, such that IC50 was calculated.

[5] = In vitro stability in liver microsomes; format: in vitro ADME; details: Human liver microsome
Protocol: 300 μL of the final incubation system contains 30 μL of liver microsomes (protein concentration: 0.15 mg/mL), 30 μL of NADPH+MgCl2, 3 μL of the test compound (in acetonitrile), and 237 μL of PBS buffer (pH 7.4). The proportion of the organic solvent (acetonitrile) was 1%. Samples were prepared in duplicate of 0.3 mL for each species (e.g., human or mouse liver microsomes). Tubes each containing 270 μL of a mixed solution of substrate and enzyme […] were pre-incubated at 37° C. for 5 min. 30 μL of NADPH+MgCl2 was added and the mixture was mixed. 50 μL of the mixture was taken at 0 min, 15 min, 30 min, and 60 min, and 300 μL of glacial acetonitrile containing an internal standard was added to terminate the reaction.
50 μL of the incubated sample was added with 300 μL of glacial acetonitrile containing an internal standard (20 ng/mL diazepam) for precipitation. The mixture was vortexed for 5 min, and centrifuged (12,000 rpm, 4° C.) for 10 min. 75 μL of supernatant was taken and diluted with 75 μL of ultrapure water. After being homogeneously mixed, 0.5 μL of the resulting sample was injected for analysis.

[6] = tested on: PC-9 EGFR-Del19-T790M-C797S cells; test: Inhibition of proliferation of PC-9-EGFR (Del19 T790M C797S) cells, CCK-8; format: cell-based; details: 72 h, read-out: PC-9-EGFR (Del19 T790M C797S) cell inhibitory activity IC50
Protocol: PC-9 EGFR-Del19-T790M-C797S cells in the logarithmic growth phase and good conditions were taken, washed with PBS, digested with pancreatin, terminated with a complete medium, collected and added to a centrifuge tube, adjusted to a cell density of 2×10^4 cells/mL, and seeded in a 96-well plate (100 μL/well). Meanwhile, compounds were loaded using a nanoliter pipettor resulting in the final concentrations of the compounds of 1000 nM-0.06 nM, and a control was set, replicate wells for each concentration. After 72 h of incubation in the cell incubator, the assay reagent CCK-8 (manufacturer: Dojindo Laboratories, Beijing; 10 μL/well) was added. After 2 h of incubation in the cell incubator, absorbance was measured at 450 nm on a PerkinElmer Envision microplate reader, and the inhibition rate was calculated.
as §1, §2

EGFR (d746-750 (d19)/T790M), sequence (P00533 other isoform, or with tags, fused parts or gaps T790M/del 1-668/del 746-750 limits assumed): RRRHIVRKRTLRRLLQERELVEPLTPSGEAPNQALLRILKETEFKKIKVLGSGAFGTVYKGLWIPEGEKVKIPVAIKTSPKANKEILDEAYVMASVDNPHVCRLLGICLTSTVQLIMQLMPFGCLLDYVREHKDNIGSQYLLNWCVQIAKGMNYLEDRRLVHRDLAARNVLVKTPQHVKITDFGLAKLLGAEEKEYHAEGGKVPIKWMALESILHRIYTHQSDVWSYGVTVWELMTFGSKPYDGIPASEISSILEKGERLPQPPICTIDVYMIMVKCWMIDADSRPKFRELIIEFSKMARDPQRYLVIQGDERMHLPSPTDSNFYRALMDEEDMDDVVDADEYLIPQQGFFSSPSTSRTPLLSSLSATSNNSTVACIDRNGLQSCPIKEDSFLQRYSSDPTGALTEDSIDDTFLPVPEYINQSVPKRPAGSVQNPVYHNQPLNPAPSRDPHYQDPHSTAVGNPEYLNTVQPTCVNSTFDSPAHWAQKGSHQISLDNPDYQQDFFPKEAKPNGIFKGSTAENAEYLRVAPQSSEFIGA

IC50 [1] | IC50 [2] | IC50 [3] | IC50 [4] | Stability in liver microsomes (residual %, T = 60 min) [5] | IC50 [6] | Structure (SMILES)
0.011 nM | 0.013 nM | < 5 nM | < 1 nM | 64.73% | – | Cc1cc2cc(n1)-c1cnn(C)c1OCCC[C@@H](C1CC1)CN1/C(=N/C2=O)Nc2cc(NCCN3CCCC3)ccc21 [Example 72]
– | 0.056 nM | < 5 nM | – | 56.81% | – | Cc1cc2cc(n1)-c1cnn(C)c1OCCC[C@@H](C1CC1)CN1/C(=N/C2=O)Nc2ccc(N[C@@H]3CC[C@@H](N(C)C)C3)cc21 [Example 130]
0.014 nM | 0.023 nM | < 5 nM | – | 94.30% | < 50 nM | Cc1cc2cc(n1)-c1cnn(C)c1OCCC[C@@H](C1CC1)CN1/C(=N/C2=O)Nc2cc(NC3CCN(C)CC3)ccc21 [Example 10]
0.017 nM | 0.027 nM | < 5 nM | < 1 nM | 95.68% | < 50 nM | CCN1CCC(Nc2ccc3c(c2)N/C2=N\C(=O)c4cc(C)nc(c4)-c4cnn(C)c4OCCC[C@@H](C4CC4)CN23)CC1 [Example 48]
0.12 nM | – | – | – | 75.00% | < 50 nM | Cc1cc2cc(n1)-c1cnn(C)c1OCCC[C@@H](C1CC1)CN1/C(=N/C2=O)Nc2ccc(N[C@H]3C[C@@H](N(C)C)C3)cc21 [Example 127]
0.012 nM | 0.02 nM | – | – | 73.66% | – | Cc1cc2cc(n1)-c1cnn(C)c1OCCC[C@@H](C1CC1)CN1/C(=N/C2=O)Nc2ccc(NC3CCN(C)CC3)cc21 [Example 20]
– | 0.08 nM | < 5 nM | – | 95.64% | < 50 nM | Cc1cc2cc(n1)-c1cnn(C)c1OCCC[C@@H](C1CC1)CN1/C(=N/C2=O)Nc2cc(N[C@H]3CC[C@@H](N(C)C)C3)ccc21 [Example 131]
– | 0.062 nM | < 5 nM | – | 97.30%. | < 50 nM | Cc1cc2cc(n1)-c1cnn(C)c1OCCC[C@@H](C1CC1)CN1/C(=N/C2=O)Nc2cc(N[C@H]3CC[C@H](N(C)C)C3)ccc21 [Example 135]
– | 0.073 nM | < 5 nM | – | 83.66% | < 50 nM | Cc1cc2cc(n1)-c1cnn(C)c1OCCC[C@@H](C1CC1)CN1/C(=N/C2=O)Nc2cc(N[C@H]3C[C@H](N(C)C)C3)ccc21 [Example 126]
0.017 nM | 0.027 nM | < 5 nM | < 1 nM | 96.11% | < 50 nM | Cc1cc2cc(n1)-c1cnn(C)c1OCCC[C@@H](C1CC1)CN1/C(=N/C2=O)Nc2cc(NC3CCN(C(C)C)CC3)ccc21 [Example 47]
– | 0.069 nM | < 5 nM | – | 65.19% | – | Cc1cc2cc(n1)-c1cnn(C)c1OCCC[C@@H](C1CC1)CN1/C(=N/C2=O)Nc2ccc(N[C@@H]3CC[C@H](N(C)C)C3)cc21 [Example 134]
0.013 nM | 0.04 nM | < 5 nM | – | 81.11% | – | Cc1cc2cc(n1)-c1cnn(C)c1OCCC[C@@H](C1CC1)CN1/C(=N/C2=O)Nc2cc(NCCCN3CCCC3)ccc21 [Example 70]
– | 0.097 nM | < 5 nM | – | 95.34% | – | Cc1cc2cc(n1)-c1cnn(C)c1OCCC[C@@H](C1CC1)CN1/C(=N/C2=O)Nc2cc(N[C@@H]3CC[C@H](N(C)C)C3)ccc21 [Example 133]
– | 0.12 nM | – | – | 77.10% | – | [2H]C([2H])([2H])N(C[C@H](C)Nc1ccc2c(c1)N/C1=N/C(=O)c3cc(C)nc(c3)-c3cnn(C)c3OCCC[C@@H](C3CC3)CN12)C([2H])([2H])[2H] [Example 124]
– | 0.065 nM | – | – | 92.24% | – | Cc1cc2cc(n1)-c1cnn(C)c1OCCC[C@@H](C1CC1)CN1/C(=N/C2=O)Nc2cc(N[C@@H]3CC[C@@H](N(C)C)C3)ccc21 [Example 129]
0.0098 nM | 0.015 nM | – | – | 83.39% | – | Cc1cc2cc(n1)-c1cnn(C)c1OCCC[C@@H](C1CC1)CN1/C(=N/C2=O)Nc2cc(NC3CN(C)C3)ccc21 [Example 33]
0.091 nM | – | < 5 nM | – | 84.54% | < 50 nM | Cc1cc2cc(n1)-c1cnn(C)c1OCCC[C@@H](C1CC1)CN1/C(=N/C2=O)Nc2ccc(N[C@H]3CC[C@@H](N(C)C)CC3)cc21 [Example 99]
– | 0.063 nM | < 5 nM | – | 71.24% | < 50 nM | Cc1cc2cc(n1)-c1cnn(C)c1OCCC[C@@H](C1CC1)CN1/C(=N/C2=O)Nc2ccc(NC(=O)CCN(C)C)cc21 [Example 112]
– | 0.066 nM | < 5 nM | – | 63.76% | < 50 nM | Cc1cc2cc(n1)-c1cnn(C)c1OCCC[C@@H](C1CC1)CN1/C(=N/C2=O)Nc2ccc(N[C@H]3CC[C@@H](N(C)C)C3)cc21 [Example 132]
0.092 nM | – | < 5 nM | – | 82.55% | < 50 nM | Cc1cc2cc(n1)-c1cnn(C)c1OCCC[C@@H](C1CC1)CN1/C(=N/C2=O)Nc2ccc(N[C@H]3CC[C@H](N(C)C)CC3)cc21 [Example 100]

Source: patent US20250034165A1, “COMPOUND CONTAINING CYCLOALKYL OR HALOALKYL” (CHIA TAI TIANQING PHARMACEUTICAL GROUP CO., LTD., priority 2021, published 2025)
